According to PubChem BioAssay AID248 (DTP/NCI, 2004):
Toxic doses and inconclusive results are not listed. No stated cut-off is given here; in the data, active means T/C of 150% or more; inactive means T/C below 125%. Bridge positions count the residues as written; N and C are the ends. Square brackets hold non-standard residues; d marks the D form. Peptide text beside a SMILES is read from it. NMeV = CN[CH](C(=O)O)C(C)C; Sar = CNCC(=O)O

Tested on: L1210 leukemia ip in BDF1 mice, survival T/C
Experiment: NCI In Vivo Anticancer Drug Screen. Data for tumor model L1210 Leukemia (intraperitoneal) in B6D2F1 (BDF1) mice
Settings: endpoint: mean survival time, higher = longer survival
Outline: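 Transplanted-tumor mice were given test agent; controls received vehicle only. Survival readings from the two groups were divided (treated over control).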

Measured: T/C

CCCOC(C)(C)CCC/C(C)=C/COc1ccc(CC)cc1
inactive: dose: 100.0 mg/kg/injection, schedule: Q04DX002 (ip), vehicle: saline with Tween-80 96 % of control | dose: 200.0 mg/kg/injection, schedule: Q04DX002 (ip), vehicle: saline with Tween-80 92 % of control | dose: 400.0 mg/kg/injection, schedule: Q04DX002 (ip), vehicle: saline with Tween-80 105 % of control

Ic1ccc(N=Cc2cccs2)cc1
inactive: dose: 50.0 mg/kg/injection, schedule: Q01DX001 (ip), vehicle: carboxymethylcellulose (CMC) 100 % of control | dose: 100.0 mg/kg/injection, schedule: Q01DX001 (ip), vehicle: carboxymethylcellulose (CMC) 94 % of control | dose: 200.0 mg/kg/injection, schedule: Q01DX001 (ip), vehicle: carboxymethylcellulose (CMC) 92 % of control | dose: 400.0 mg/kg/injection, schedule: Q01DX001 (ip), vehicle: carboxymethylcellulose (CMC) 94 % of control

O=C(O)c1cccc2ccccc12
inactive: dose: 100.0 mg/kg/injection, schedule: Q01DX009 (ip), vehicle: saline with Tween-80 89 % of control | dose: 200.0 mg/kg/injection, schedule: Q01DX009 (ip), vehicle: saline with Tween-80 100 % of control

COC(=O)CC(c1ccc(Cl)cc1)N1CCCCC1 (stereo not drawn)
inactive: dose: 100.0 mg/kg/injection, schedule: Q01DX001 (ip), vehicle: saline 98 % of control | dose: 200.0 mg/kg/injection, schedule: Q01DX001 (ip), vehicle: saline 102 % of control | dose: 400.0 mg/kg/injection, schedule: Q01DX001 (ip), vehicle: saline 96 % of control

CC(C)C1NC(=O)C(N)C(C)OC(=O)C(C(C)C)N(C)C(=O)CN(C)C(=O)C2CCCN2C1=O (stereo not drawn) (tested in a mixture with another compound) (H-TVP[Sar][NMeV]; ester 1-C; configuration not given here)
inactive: dose: 0.1 mg/kg/injection, schedule: Q01DX001 (ip), vehicle: saline + alcohol 103 % of control | dose: 0.2 mg/kg/injection, schedule: Q01DX001 (ip), vehicle: saline + alcohol 107 % of control | dose: 0.4 mg/kg/injection, schedule: Q01DX001 (ip), vehicle: saline + alcohol 124 % of control | dose: 0.8 mg/kg/injection, schedule: Q01DX001 (ip), vehicle: saline + alcohol 122 % of control | dose: 15.6 micrograms/kg/injection, schedule: Q01DX009 (ip), vehicle: other 95 % of control | dose: 25.0 micrograms/kg/injection, schedule: Q01DX009 (ip), vehicle: saline + alcohol 106 % of control | dose: 31.3 micrograms/kg/injection, schedule: Q01DX009 (ip), vehicle: other 92 % of control | dose: 62.5 micrograms/kg/injection, schedule: Q01DX009 (ip), vehicle: other 97 % of control | dose: 75.0 micrograms/kg/injection, schedule: Q04DX003 (ip), vehicle: saline + alcohol 103 % of control | dose: 125.0 micrograms/kg/injection, schedule: Q01DX009 (ip), vehicle: other 105 % of control | dose: 150.0 micrograms/kg/injection, schedule: Q04DX003 (ip), vehicle: saline + alcohol 106 % of control | dose: 250.0 micrograms/kg/injection, schedule: Q01DX009 (ip), vehicle: other 121 % of control | dose: 300.0 micrograms/kg/injection, schedule: Q04DX003 (ip), vehicle: saline + alcohol 121 % of control | dose: 500.0 micrograms/kg/injection, schedule: Q01DX009 (ip), vehicle: other 103 % of control | dose: 1200.0 micrograms/kg/injection, schedule: Q04DX003 (ip), vehicle: saline + alcohol 116 % of control

O=C(CCl)OCCI
inactive: dose: 6.25 mg/kg/injection, schedule: Q01DX009 (ip), vehicle: acetone 97 % of control | dose: 12.5 mg/kg/injection, schedule: Q01DX009 (ip), vehicle: acetone 95 % of control | dose: 25.0 mg/kg/injection, schedule: Q01DX009 (ip), vehicle: acetone 90 % of control | dose: 25.0 mg/kg/injection, schedule: Q04DX003 (ip), vehicle: acetone 99 % of control | dose: 35.0 mg/kg/injection, schedule: Q01DX009 (ip), vehicle: acetone 98 % of control | dose: 55.0 mg/kg/injection, schedule: Q01DX009 (ip), vehicle: acetone 90 % of control | dose: 80.0 mg/kg/injection, schedule: Q01DX009 (ip), vehicle: acetone 97 % of control | dose: 100.0 mg/kg/injection, schedule: Q01DX001 (ip), vehicle: acetone 97 % of control

COc1cc(Cl)ccc1NC(=O)N(C)C1CCCCC1
inactive: dose: 100.0 mg/kg/injection, schedule: Q01DX009 (ip), vehicle: Klucel (hydroxypropylcellulose) (HPC) 104 % of control | dose: 200.0 mg/kg/injection, schedule: Q01DX009 (ip), vehicle: Klucel (hydroxypropylcellulose) (HPC) 104 % of control | dose: 400.0 mg/kg/injection, schedule: Q01DX009 (ip), vehicle: Klucel (hydroxypropylcellulose) (HPC) 95 % of control
